In BindingDB's records for doi:10.1021/jm00060a006 (Paris Diderot University, 1993):

Columns and labels:
[1] = Inhibition of PAF-induced rabbit platelet aggregation
[2] = Inhibition of [3H]PAF binding to rabbit platelet membrane

| IC50 [1] [nM] | EC50 [2] [nM] | Compound |
| --- | --- | --- |
| 100 | 300 | COc1cc(C(=O)N2CCN(C(=O)c3cc(OC)c(OC)c(OC)c3)C(COC(=O)C(C)(C)C)C2)cc(OC)c1OC (stereo unspecified) [2,2-Dimethyl-propionic acid 1,4-bis-(3,4,5-trimethoxy-benzoyl)-piperazin-2-ylmethyl ester] |
| 120 |  | COc1cc(C(=O)N2CCN(C(=O)c3cc(OC)c(OC)c(OC)c3)C(COC(=O)CC(C)(C)C)C2)cc(OC)c1OC (stereo unspecified) [3,3-Dimethyl-butyric acid 1,4-bis-(3,4,5-trimethoxy-benzoyl)-piperazin-2-ylmethyl ester] |
| 320 |  | CCC(C)(C)NC(=O)OCC1CN(C(=O)c2cc(OC)c(OC)c(OC)c2)CCN1C(=O)c1cc(OC)c(OC)c(OC)c1 (stereo unspecified) [(1,1-Dimethyl-propyl)-carbamic acid 1,4-bis-(3,4,5-trimethoxy-benzoyl)-piperazin-2-ylmethyl ester] |
| 170 |  | COc1cc(C(=O)N2CCN(C(=O)c3cc(OC)c(OC)c(OC)c3)C(COC(=O)NC(C)C(C)(C)C)C2)cc(OC)c1OC (stereo unspecified) [(1,2,2-Trimethyl-propyl)-carbamic acid 1,4-bis-(3,4,5-trimethoxy-benzoyl)-piperazin-2-ylmethyl ester] |
| 80 | 70 | COc1cc(C(=O)N2CCN(C(=O)c3cc(OC)c(OC)c(OC)c3)C(COC(=O)NC(C)C(C)C)C2)cc(OC)c1OC (stereo unspecified) [(1,2-Dimethyl-propyl)-carbamic acid 1,4-bis-(3,4,5-trimethoxy-benzoyl)-piperazin-2-ylmethyl ester] |
| 280 | 180 | COc1cc(C(=O)N2CCN(C(=O)c3cc(OC)c(OC)c(OC)c3)C(COC(=O)NC(C)CC(C)C)C2)cc(OC)c1OC (stereo unspecified) [(1,3-Dimethyl-butyl)-carbamic acid 1,4-bis-(3,4,5-trimethoxy-benzoyl)-piperazin-2-ylmethyl ester] |
| 380 | 680 | CCCN(CCC)C(=O)OCC1CN(C(=O)c2cc(OC)c(OC)c(OC)c2)CCN1C(=O)c1cc(OC)c(OC)c(OC)c1 (stereo unspecified) [(1,4-bis(3,4,5-trimethoxybenzoyl)piperazin-2-yl)methyl dipropylcarbamate] |
| 130 |  | CCC(CC)NC(=O)OCC1CN(C(=O)c2cc(OC)c(OC)c(OC)c2)CCN1C(=O)c1cc(OC)c(OC)c(OC)c1 (stereo unspecified) [(1-Ethyl-propyl)-carbamic acid 1,4-bis-(3,4,5-trimethoxy-benzoyl)-piperazin-2-ylmethyl ester] |
| 100 |  | CCCC(C)NC(=O)OCC1CN(C(=O)c2cc(OC)c(OC)c(OC)c2)CCN1C(=O)c1cc(OC)c(OC)c(OC)c1 (stereo unspecified) [(1-Methyl-butyl)-carbamic acid 1,4-bis-(3,4,5-trimethoxy-benzoyl)-piperazin-2-ylmethyl ester] |
| 470 |  | CCC(C)CNC(=O)OCC1CN(C(=O)c2cc(OC)c(OC)c(OC)c2)CCN1C(=O)c1cc(OC)c(OC)c(OC)c1 (stereo unspecified) [(2-Methyl-butyl)-carbamic acid 1,4-bis-(3,4,5-trimethoxy-benzoyl)-piperazin-2-ylmethyl ester] |
| 140 |  | COc1cc(C(=O)N2CCN(C(=O)c3cc(OC)c(OC)c(OC)c3)C(COC(=O)NCCC(C)C)C2)cc(OC)c1OC (stereo unspecified) [(3-Methyl-butyl)-carbamic acid 1,4-bis-(3,4,5-trimethoxy-benzoyl)-piperazin-2-ylmethyl ester] |
| 430 | 400 | COc1cc(C(=O)N2CCN(C(=O)c3cc(OC)c(OC)c(OC)c3)C(COC(C)=O)C2)cc(OC)c1OC (stereo unspecified) [Acetic acid 1,4-bis-(3,4,5-trimethoxy-benzoyl)-piperazin-2-ylmethyl ester] |
| 240 | 700 | CCCCNC(=O)OCC1CN(C(=O)c2cc(OC)c(OC)c(OC)c2)CCN1C(=O)c1cc(OC)c(OC)c(OC)c1 (stereo unspecified) [Butyl-carbamic acid 1,4-bis-(3,4,5-trimethoxy-benzoyl)-piperazin-2-ylmethyl ester] |
| 420 |  | CCCC(=O)OCC1CN(C(=O)c2cc(OC)c(OC)c(OC)c2)CCN1C(=O)c1cc(OC)c(OC)c(OC)c1 (stereo unspecified) [Butyric acid 1,4-bis-(3,4,5-trimethoxy-benzoyl)-piperazin-2-ylmethyl ester] |
| 290 |  | COc1cc(C(=O)N2CCN(C(=O)c3cc(OC)c(OC)c(OC)c3)C(COC(=O)C3CCCCC3)C2)cc(OC)c1OC (stereo unspecified) [Cyclohexanecarboxylic acid 1,4-bis-(3,4,5-trimethoxy-benzoyl)-piperazin-2-ylmethyl ester] |
| 25800 |  | CCN(CC)C(=O)OCC1CN(C(=O)c2cc(OC)c(OC)c(OC)c2)CCN1C(=O)c1cc(OC)c(OC)c(OC)c1 (stereo unspecified) [Diethyl-carbamic acid 1,4-bis-(3,4,5-trimethoxy-benzoyl)-piperazin-2-ylmethyl ester] |
| 290 |  | CCCCCC(=O)OCC1CN(C(=O)c2cc(OC)c(OC)c(OC)c2)CCN1C(=O)c1cc(OC)c(OC)c(OC)c1 (stereo unspecified) [Hexanoic acid 1,4-bis-(3,4,5-trimethoxy-benzoyl)-piperazin-2-ylmethyl ester] |
| 310 |  | CCCCCCCC(=O)OCC1CN(C(=O)c2cc(OC)c(OC)c(OC)c2)CCN1C(=O)c1cc(OC)c(OC)c(OC)c1 (stereo unspecified) [Octanoic acid 1,4-bis-(3,4,5-trimethoxy-benzoyl)-piperazin-2-ylmethyl ester] |
| 130 |  | COc1cc(C(=O)N2CCN(C(=O)c3cc(OC)c(OC)c(OC)c3)C(COC(=O)NC(C)(C)C)C2)cc(OC)c1OC (stereo unspecified) [tert-Butyl-carbamic acid 1,4-bis-(3,4,5-trimethoxy-benzoyl)-piperazin-2-ylmethyl ester] |

The next lines start with the compound.

| Compound | IC50 [1] [nM] | EC50 [2] [nM] |
| --- | --- | --- |
| COc1cc(C(=O)N2CCN(C(=O)c3cc(OC)c(OC)c(OC)c3)CC2)cc(OC)c1OC | 1780 |  |
| C[C@@H]1C(=O)O[C@H]2[C@H](O)[C@@]34[C@H]5C[C@@H](C(C)(C)C)[C@]36[C@@H](OC(=O)[C@@H]6O)O[C@@]4(C(=O)O5)[C@@]12O | 740 | 180 |
| COc1cc(N2CCN(c3cc(OC)c(OC)c(OC)c3)CC2)cc(OC)c1OC [1,4-Bis-(3,4,5-trimethoxy-phenyl)-piperazine] | 12500 |  |
| COc1cc(C(=O)N2CCN(C(=O)c3cc(OC)c(OC)c(OC)c3)C(COC(=O)c3ccccc3Cl)C2)cc(OC)c1OC (stereo unspecified) [2-Chloro-benzoic acid 1,4-bis-(3,4,5-trimethoxy-benzoyl)-piperazin-2-ylmethyl ester] | 170 | 450 |
| CCC(CC)C(=O)OCC1CN(Cc2cc(OC)c(OC)c(OC)c2)CCN1Cc1cc(OC)c(OC)c(OC)c1 (stereo unspecified) [2-Ethyl-butyric acid 1,4-bis-(3,4,5-trimethoxy-benzyl)-piperazin-2-ylmethyl ester] | 2700 |  |
| CCCCC(CC)CNC(=O)OCC1CN(C(=O)c2cc(OC)c(OC)c(OC)c2)CCN1C(=O)c1cc(OC)c(OC)c(OC)c1 (stereo unspecified) [(2-Ethyl-hexyl)-carbamic acid 1,4-bis-(3,4,5-trimethoxy-benzoyl)-piperazin-2-ylmethyl ester] | 3900 |  |
| COc1cc(NC(=O)OCC2CN(C(=O)c3cc(OC)c(OC)c(OC)c3)CCN2C(=O)c2cc(OC)c(OC)c(OC)c2)cc(OC)c1OC (stereo unspecified) [(3,4,5-Trimethoxy-phenyl)-carbamic acid 1,4-bis-(3,4,5-trimethoxy-benzoyl)-piperazin-2-ylmethyl ester] | 13800 |  |
| COc1cc(C(=O)N2CCN(C(=O)c3cc(OC)c(OC)c(OC)c3)C(COC(=O)COc3ccc(Cl)cc3)C2)cc(OC)c1OC (stereo unspecified) [(4-Chloro-phenoxy)-acetic acid 1,4-bis-(3,4,5-trimethoxy-benzoyl)-piperazin-2-ylmethyl ester] | 5000 |  |
| COc1cc(C(=O)N2CCN(C(=O)c3cc(OC)c(OC)c(OC)c3)C(COC(=O)COc3ccc(F)cc3)C2)cc(OC)c1OC (stereo unspecified) [(4-Fluoro-phenoxy)-acetic acid 1,4-bis-(3,4,5-trimethoxy-benzoyl)-piperazin-2-ylmethyl ester] | 10300 |  |
| CCCCCCCCCC(=O)OCC1CN(C(=O)c2cc(OC)c(OC)c(OC)c2)CCN1C(=O)c1cc(OC)c(OC)c(OC)c1 (stereo unspecified) [Decanoic acid 1,4-bis-(3,4,5-trimethoxy-benzoyl)-piperazin-2-ylmethyl ester] | 2820 |  |
| CCCCN(CCCC)C(=O)OCC1CN(C(=O)c2cc(OC)c(OC)c(OC)c2)CCN1C(=O)c1cc(OC)c(OC)c(OC)c1 (stereo unspecified) [Dibutyl-carbamic acid 1,4-bis-(3,4,5-trimethoxy-benzoyl)-piperazin-2-ylmethyl ester] | 1250 |  |
| CCCCCN(CCCCC)C(=O)OCC1CN(C(=O)c2cc(OC)c(OC)c(OC)c2)CCN1C(=O)c1cc(OC)c(OC)c(OC)c1 (stereo unspecified) [Dipentyl-carbamic acid 1,4-bis-(3,4,5-trimethoxy-benzoyl)-piperazin-2-ylmethyl ester] | 11400 |  |
| CCCCCCCCCCCCCCCCCC(=O)OCC1CN(C(=O)c2cc(OC)c(OC)c(OC)c2)CCN1C(=O)c1cc(OC)c(OC)c(OC)c1 (stereo unspecified) [Octadecanoic acid 1,4-bis-(3,4,5-trimethoxy-benzoyl)-piperazin-2-ylmethyl ester] | 45000 |  |
| CCCCCCCCNC(=O)OCC1CN(C(=O)c2cc(OC)c(OC)c(OC)c2)CCN1C(=O)c1cc(OC)c(OC)c(OC)c1 (stereo unspecified) [Octyl-carbamic acid 1,4-bis-(3,4,5-trimethoxy-benzoyl)-piperazin-2-ylmethyl ester] | 370 |  |
